The values below come from BindingDB's records for doi:10.1016/j.bmcl.2006.10.060 (Merck Research Laboratories, 2007).

Structures are written as SMILES.

A short description of the assay: Antagonist activity against human CCR2 receptor assessed as inhibition of MCP1-induced migration of human peripheral blood monocytes.
What is called IC50 is the concentration that gives 50% inhibition. As to `CCN(CC)CCCC(C)NC(=O)CCNc1cc(-c2cc(Cl)cc(Cl)c2)nn1-c1ccc2ccccc2c1` (stereo unspecified) [3-(3-(3,5-dichlorophenyl)-1-(naphthalen-2-yl)-1H-pyrazol-5-ylamino)-N-(5-(diethylamino)pentan-2-yl)propanamide], the IC50 is 54 nM.

Regarding `CCN(CC)CCCC(CC(C)C)NC(=O)CCOc1cc(-c2cc(Cl)cc(Cl)c2)nn1-c1ccc2ccccc2c1` (stereo unspecified) [3-(3-(3,5-dichlorophenyl)-1-(naphthalen-2-yl)-1H-pyrazol-5-yloxy)-N-(1-(diethylamino)-6-methylheptan-4-yl)propanamide], the IC50 turned out to be 178 nM.

Regarding `CCC(C)CC(CCCN(CC)CC)NC(=O)CCOc1cc(-c2cc(Cl)cc(Cl)c2)nn1-c1ccc2ccccc2c1` (stereo unspecified) [3-(3-(3,5-dichlorophenyl)-1-(naphthalen-2-yl)-1H-pyrazol-5-yloxy)-N-(1-(diethylamino)-6-methyloctan-4-yl)propanamide], the IC50 worked out at 225 nM.

`CCCC(CCCN(CC)CC)NC(=O)CCOc1cc(-c2cc(Cl)cc(Cl)c2)nn1-c1ccc2ccccc2c1` (stereo unspecified) [3-(3-(3,5-dichlorophenyl)-1-(naphthalen-2-yl)-1H-pyrazol-5-yloxy)-N-(1-(diethylamino)heptan-4-yl)propanamide]: the IC50 came out at 154 nM.

Take `CCN(CC)CCCC(C)NC(=O)CCOc1cc(-c2cc(Cl)cc(Cl)c2)nn1-c1ccc2ccccc2c1` (stereo unspecified) [3-(3-(3,5-dichlorophenyl)-1-(naphthalen-2-yl)-1H-pyrazol-5-yloxy)-N-(5-(diethylamino)pentan-2-yl)propanamide]: the IC50 was determined as 280 nM.

For `CCN(CC)CCCC(NC(=O)CCOc1cc(-c2cc(Cl)cc(Cl)c2)nn1-c1ccc2ccccc2c1)C(C)C` (stereo unspecified) [3-(3-(3,5-dichlorophenyl)-1-(naphthalen-2-yl)-1H-pyrazol-5-yloxy)-N-(6-(diethylamino)-2-methylhexan-3-yl)propanamide], the IC50 is 32 nM.

As to `CCC(CCCN(CC)CC)NC(=O)CCOc1cc(-c2cc(Cl)cc(Cl)c2)nn1-c1ccc2ccccc2c1` (stereo unspecified) [3-(3-(3,5-dichlorophenyl)-1-(naphthalen-2-yl)-1H-pyrazol-5-yloxy)-N-(6-(diethylamino)hexan-3-yl)propanamide], the IC50 came out at 83 nM.

Regarding `O=C(CCCc1cc(-c2cc(Cl)cc(Cl)c2)nn1-c1ccc2ccccc2c1)NCCCc1ccncc1` [4-(3-(3,5-dichlorophenyl)-1-(naphthalen-2-yl)-1H-pyrazol-5-yl)-N-(3-(pyridin-4-yl)propyl)butanamide], the IC50 is 1400 nM.

As for `COC(=O)[C@H](CCCN=C(N)N)NC(=O)CCNc1cc(-c2cc(Cl)cc(Cl)c2)nn1-c1ccc2ccccc2c1` [(S)-2-{3-[5-(3,5-dichloro-phenyl)-2-naphthalen-2-yl-2H-pyrazol-3-ylamino]-propionylamino}-5-guanidino-pentanoic acid methyl ester], the IC50 worked out at 68 nM.

`COC(=O)[C@H](CCCN=C(N)N)NC(=O)CCOc1cc(-c2cc(Cl)cc(Cl)c2)nn1-c1ccc2ccccc2c1` [(S)-2-{3-[5-(3,5-dichloro-phenyl)-2-naphthalen-2-yl-2H-pyrazol-3-yloxy]-propionylamino}-5-guanidino-pentanoic acid methyl ester]: the IC50 came out at 118 nM.

Regarding `COC(=O)[C@H](CCCN=C(N)N)NC(=O)CCCc1cc(-c2cc(Cl)cc(Cl)c2)nn1-c1ccc2ccccc2c1` [(S)-2-{4-[5-(3,5-dichloro-phenyl)-2-naphthalen-2-yl-2H-pyrazol-3-yl]-butyrylamino}-5-guanidino-pentanoic acid methyl ester], the IC50 turned out to be 185 nM.
